Source: ChEMBL document CHEMBL3414492, “Enhancing the cellular anti-proliferation activity of pyridazinones as c-met inhibitors using docking analysis” (Eur J Med Chem, 2015)
One block for each compound: values may come before it. The source made the active and inactive calls. No cut-off for these calls is given here.

Tests used:
[1] = molecular target: T1, Hepatocyte growth factor receptor (Homo sapiens, UniProt P08581); experiment: Inhibition of recombinant c-Met (unknown origin) at 10 uM using poly (Glu,Tyr)4:1 substrate incubated for 60 mins by ELISA method
[2] = system: EBC-1; experiment: (§1) Inhibition of cell proliferation of human EBC1 cells at 10 uM after 72 hrs by SRB assay; format: functional
[3] = Inhibition of cell proliferation of human EBC1 cells after 72 hrs by SRB assay; conditions: EBC-1, 72 h
[4] = molecular target: T1, Hepatocyte growth factor receptor; experiment: Inhibition of recombinant c-Met (unknown origin) using poly (Glu,Tyr)4:1 substrate incubated for 60 mins by ELISA method
[5] = Inhibition of cell proliferation of human EBC1 cells at 1 uM after 72 hrs by SRB assay; conditions: EBC-1, 72 h, read-out: INH
[6] = as §1; format: functional; conditions: EBC-1, 72 h
[7] = Inhibition of cell proliferation of human SNU5 cells after 72 hrs by SRB assay; conditions: SNU-5, 72 h
[8] = system: SNU1; experiment: Inhibition of cell proliferation of human SNU1 cells after 72 hrs by SRB assay; conditions: SNU1, 72 h
[9] = system: NCI-H661; experiment: Inhibition of cell proliferation of human NCI-H661 cells after 72 hrs by SRB assay; conditions: NCI-H661, 72 h
[10] = Inhibition of cell proliferation of human MKN45 cells after 72 hrs by SRB assay; conditions: MKN-45, 72 h
[11] = molecular target: Tyrosine-protein kinase receptor UFO (Homo sapiens, UniProt P30530); experiment: Inhibition of AXL (unknown origin)
[12] = system: A549; experiment: Selectivity index, ratio of IC50 for human A549 cells to IC50 for human EBC1 cells; format: functional
[13] = Selectivity index, ratio of IC50 for human NCI-H661 cells to IC50 for human EBC1 cells; format: functional
[14] = system: A549; experiment: Selectivity index, ratio of IC50 for human A549 cells to IC50 for human SNU5 cells; format: functional
[15] = system: NCI-H358; experiment: Selectivity index, ratio of IC50 for human NCI-H358 cells to IC50 for human MKN45 cells; format: functional
[16] = system: NCI-H520; experiment: Inhibition of cell proliferation of human NCI-H520 cells after 72 hrs by SRB assay; format: functional, cell-based; conditions: NCI-H520, 72 h
[17] = molecular target: Epidermal growth factor receptor (Homo sapiens, UniProt P00533, L858R/T790M); experiment: Inhibition of EGFR T790M/L858R mutant (unknown origin); format: protein assay
[18] = molecular target: Receptor tyrosine-protein kinase erbB-4 (Homo sapiens, UniProt Q15303); experiment: Inhibition of ERBB4 (unknown origin)
[19] = system: NCI-H460; experiment: Selectivity index, ratio of IC50 for human NCI-H460 cells to IC50 for human SNU5 cells; format: functional
[20] = Inhibition of cell proliferation of human SNU16 cells after 72 hrs by SRB assay; format: functional, cell-based; conditions: SNU-16, 72 h
[21] = system: SNU-5; experiment: Selectivity index, ratio of IC50 for human NCI-H661 cells to IC50 for human SNU5 cells; format: functional
[22] = Selectivity index, ratio of IC50 for human PC3 cells to IC50 for human EBC1 cells; format: functional
[23] = molecular target: Platelet-derived growth factor receptor beta (Homo sapiens, UniProt P09619); experiment: Inhibition of PDGFRbeta (unknown origin)
[24] = molecular target: ALK tyrosine kinase receptor (Homo sapiens, UniProt Q9UM73); experiment: Inhibition of ALK (unknown origin)
[25] = molecular target: T1, Hepatocyte growth factor receptor; experiment: Inhibition of c-Met Y1234/1235 phosphorylation in human EBC1 cells at 11 nM to 100 nM incubated for 2 hrs by Western blot method; format: cell-based
[26] = molecular target: Ephrin type-A receptor 2 (Homo sapiens, UniProt P29317); experiment: Inhibition of EPHA2 (unknown origin)
[27] = molecular target: Vascular endothelial growth factor receptor 1 (Homo sapiens, UniProt P17948); experiment: Inhibition of FLT1 (unknown origin)
[28] = system: A549; experiment: Selectivity index, ratio of IC50 for human A549 cells to IC50 for human MKN45 cells; format: functional
[29] = Inhibition of cell proliferation of human PC3 cells after 72 hrs by SRB assay; format: functional, cell-based; conditions: PC-3, 72 h
[30] = system: NCI-H358; experiment: Selectivity index, ratio of IC50 for human NCI-H358 cells to IC50 for human SNU5 cells; format: functional
[31] = system: SNU-16; experiment: Selectivity index, ratio of IC50 for human SNU16 cells to IC50 for human SNU5 cells; format: functional
[32] = system: MKN-45; experiment: Selectivity index, ratio of IC50 for human PC3 cells to IC50 for human MKN45 cells; format: functional
[33] = system: NCI-H460; experiment: Selectivity index, ratio of IC50 for human NCI-H460 cells to IC50 for human EBC1 cells; format: functional
[34] = molecular target: T1, Hepatocyte growth factor receptor; experiment: Inhibition of c-Met in human EBC1 cells assessed as reduction in Akt S473 phosphorylation at 11 nM to 100 nM incubated for 2 hrs by Western blot method; format: cell-based
[35] = molecular target: Macrophage-stimulating protein receptor (Homo sapiens, UniProt Q04912); experiment: Inhibition of RON (unknown origin)
[36] = molecular target: T1, Hepatocyte growth factor receptor; experiment: Inhibition of c-Met Y1234/1235 phosphorylation in human EBC1 cells at 0.1 uM incubated for 2 hrs by Western blot method; format: cell-based
[37] = molecular target: Epidermal growth factor receptor (Homo sapiens, UniProt P00533); experiment: Inhibition of EGFR (unknown origin)
[38] = system: NCI-H358; experiment: Inhibition of cell proliferation of human NCI-H358 cells after 72 hrs by SRB assay; format: functional, cell-based; conditions: NCI-H358, 72 h
[39] = system: SNU-16; experiment: Selectivity index, ratio of IC50 for human SNU16 cells to IC50 for human EBC1 cells; format: functional
[40] = system: SNU-5; experiment: Selectivity index, ratio of IC50 for human PC3 cells to IC50 for human SNU5 cells; format: functional
[41] = molecular target: Fibroblast growth factor receptor 1 (Homo sapiens, UniProt P11362); experiment: Inhibition of FGFR1 (unknown origin)
[42] = system: NCI-H460; experiment: Inhibition of cell proliferation of human NCI-H460 cells after 72 hrs by SRB assay; format: functional, cell-based; conditions: NCI-H460, 72 h
[43] = molecular target: T1, Hepatocyte growth factor receptor; experiment: Inhibition of c-Met in human EBC1 cells assessed as reduction in ERK T202/Y204 phosphorylation at 11 nM to 100 nM incubated for 2 hrs by Western blot method; format: cell-based
[44] = Selectivity index, ratio of IC50 for human NCI-H520 cells to IC50 for human EBC1 cells; format: functional
[45] = system: MKN-45; experiment: Selectivity index, ratio of IC50 for human NCI-H661 cells to IC50 for human MKN45 cells; format: functional
[46] = system: A549; experiment: Inhibition of cell proliferation of human A549 cells after 72 hrs by SRB assay; format: functional, cell-based; conditions: A549, 72 h
[47] = molecular target: Insulin-like growth factor 1 receptor (Homo sapiens, UniProt P08069); experiment: Inhibition of IGF1R (unknown origin)
[48] = system: NCI-H358; experiment: Selectivity index, ratio of IC50 for human NCI-H358 cells to IC50 for human EBC1 cells; format: functional
[49] = system: SNU-5; experiment: Selectivity index, ratio of IC50 for human NCI-H520 cells to IC50 for human SNU5 cells; format: functional
[50] = molecular target: Tyrosine-protein kinase receptor TYRO3 (Homo sapiens, UniProt Q06418); experiment: Inhibition of TYRO3 (unknown origin)
[51] = system: SNU-16; experiment: Selectivity index, ratio of IC50 for human SNU16 cells to IC50 for human MKN45 cells; format: functional
[52] = system: MKN-45; experiment: Selectivity index, ratio of IC50 for human NCI-H520 cells to IC50 for human MKN45 cells; format: functional
[53] = system: NCI-H460; experiment: Selectivity index, ratio of IC50 for human NCI-H460 cells to IC50 for human MKN45 cells; format: functional

inhibition [1]: 63.4%
Structure (SMILES): CN(C)CCCCOC(=O)Nc1cccc(Cn2nc(Nc3ccccc3C(F)(F)F)ccc2=O)c1
inhibition [2]: inactive

Structure (SMILES): CN(C)CCCCOC(=O)Nc1cccc(Cn2nc(Nc3cccc(C(F)(F)F)c3)ccc2=O)c1
inhibition [2]: inactive

Structure (SMILES): CN1CCN(CCCCOC(=O)Nc2cccc(Cn3nc(-n4ccc5ccc(F)cc54)ccc3=O)c2)CC1
IC50 [3]: ≤ 0.1 µM

IC50 [4]: > 10 µM
Structure (SMILES): Cc1ccccc1Nc1ccc(=O)n(Cc2ccc(NC(=O)OCCCCN(C)C)cc2)n1

Structure (SMILES): CN(C)CCCCOC(=O)Nc1cccc(Cn2nc(-n3ccc4ccccc43)ccc2=O)c1
inhibition at 1 µM [5]: < 50%
inhibition at 10 µM [6]: > 70%

IC50 [8]: 3.9 µM
IC50 [9]: 1.6 µM
Structure (SMILES): CN1CCN(CCCOC(=O)Nc2cccc(Cn3nc(-n4ccc5ccc(F)cc54)ccc3=O)c2)CC1
IC50 [7]: 1.2 µM
IC50 [3]: ≤ 0.1 µM
IC50 [10]: 0.7 µM

Structure (SMILES): CN(C)CCCCOC(=O)Nc1cccc(Cn2nc(Nc3cc(F)cc(F)c3)ccc2=O)c1
inhibition [2]: inactive

Structure (SMILES): CN(C)CCCCCOC(=O)Nc1cccc(Cn2nc(-n3ccc4ccc(F)cc43)ccc2=O)c1
IC50 [3]: ≤ 0.1 µM

Structure (SMILES): CN(C)CCCCOC(=O)Nc1cccc(Cn2nc(Nc3cccc(Cl)c3)ccc2=O)c1
inhibition [2]: inactive

IC50 [11]: > 1 µM
IC50 [16]: > 10 µM
IC50 [17]: > 1 µM
IC50 [18]: > 1 µM
IC50 [23]: > 1 µM
IC50 [24]: > 1 µM
IC50 [4]: 0.0042 µM
inhibition [25]: Dose-dependent effect
IC50 [26]: > 1 µM
IC50 [27]: > 1 µM
IC50 [9]: > 10000 µM
inhibition [34]: Active
IC50 [35]: > 1 µM
inhibition [36]: Active
IC50 [37]: > 1 µM
IC50 [38]: > 10 µM
IC50 [41]: > 1 µM
IC50 [42]: > 10 µM
inhibition [43]: Active
IC50 [46]: > 10 µM
IC50 [47]: > 1 µM
IC50 [50]: > 1 µM
Structure (SMILES): O=c1ccc(-n2ccc3ccc(F)cc32)nn1CCOc1ccnc2cc(OCCCN3CCOCC3)ccc12
Ratio IC50 [12]: 100
Ratio IC50 [13]: 100
Ratio IC50 [14]: 100
Ratio IC50 [15]: 100
IC50 [7]: 88.1 µM
Ratio IC50 [19]: 100
IC50 [20]: > 10 µM
Ratio IC50 [21]: 100
Ratio IC50 [22]: 100
Ratio IC50 [28]: 100
IC50 [29]: > 10 µM
Ratio IC50 [30]: 100
Ratio IC50 [31]: > 100
Ratio IC50 [32]: > 100
Ratio IC50 [33]: 100
IC50 [3]: 0.0172 µM
Ratio IC50 [39]: > 100
Ratio IC50 [40]: > 100
IC50 [10]: 60.7 µM
Ratio IC50 [44]: 100
Ratio IC50 [45]: 100
Ratio IC50 [48]: 100
Ratio IC50 [49]: 100
Ratio IC50 [51]: > 100
Ratio IC50 [52]: 100
Ratio IC50 [53]: 100

IC50 [4]: > 10 µM
Structure (SMILES): Cc1ccccc1Nc1ccc(=O)n(Cc2ccccc2NC(=O)OCCCCN(C)C)n1

Structure (SMILES): COC(=O)CCCCOC(=O)Nc1cccc(Cn2nc(-n3ccc4ccc(F)cc43)ccc2=O)c1
IC50 [3]: > 10 µM

Structure (SMILES): CN(C)CCOC(=O)Nc1cccc(Cn2nc(-n3ccc4ccc(F)cc43)ccc2=O)c1
IC50 [3]: ≤ 1 µM

Structure (SMILES): CN(C)CCCCOC(=O)Nc1cccc(Cn2nc(Nc3cccc(F)c3)ccc2=O)c1
inhibition [2]: inactive

Structure (SMILES): CN(C)CCCOC(=O)Nc1cccc(Cn2nc(-n3ccc4ccc(F)cc43)ccc2=O)c1
IC50 [3]: ≤ 1 µM

Structure (SMILES): Cc1ccccc1Nc1ccc(=O)n(Cc2cccc(NC(=O)OCCCCN(C)C)c2)n1
inhibition [2]: inactive

Structure (SMILES): O=c1ccc(-n2ccc3ccc(F)cc32)nn1Cc1cccc(-c2ncc(OCCN3CCOCC3)cn2)c1
IC50 [3]: 0.124 µM

Structure (SMILES): CN(C)CCCCOC(=O)Nc1cccc(Cn2nc(Nc3ccc(C(F)(F)F)cc3)ccc2=O)c1
inhibition [2]: inactive
